Results on 14 compounds are retold here after US7812022B2 (GlaxoSmithKline LLC, priority 2004, dated 2010).

The test system of assay [1] is Colo205 tumor cell lines. Put plainly: Celltiter Glo growth inhibition assay (cellular Method B), Colo205. The settings on record: Homo sapiens, COLO 205, 72 h, 3 days, read-out: Activity (Method): growth inhibition IC50 class. Format: cell-based. As for the experimental part:
(§1) Human breast tumor cells (BT474) were cultured in RPMI, (Invitrogen, 22400) containing 10% fetal bovine serum (FBS). Human head and neck tumor cells (HN5) were cultured in low glucose DMEM (Invitrogen, 12320) containing 10% FBS. Human colon tumor cells (Colo205) were cultured in DMEM (Invitrogen, 10564) containing 10% FBS. All cell lines were maintained at 37° C. in a humidified 5% CO2, 95% air incubator. Cells were harvested using trypsin/EDTA, counted using a haemocytometer, and plated in 30 microliters of the appropriate media described above, at the following densities, in a half area, black-walled, 96-well tissue culture plate (Corning 3882): BT474 3,000 cells/well, HN5 500 cells/well and Colo205 cells, 3,000 cells/well. The next day, compounds were diluted in DMEM containing […] gentamicin, from 10 mM stock solutions in DMSO. 30 microliters/well of these dilutions were added to the 30 microliters/well of media currently on the cell plates. Medium containing 0.6% DMSO was added to control wells. The final concentration of DMSO in all wells was 0.3%. Cells were incubated at 37° C., 5% CO2 for 3 days. Cell biomass was estimated using Celltiter Glo (Promega G7571). Briefly, plates were removed from the incubator and allowed to equilibrate to rt for 30 minutes. 60 microliters of Celltiter Glo reagent were added to each well of the treated cells and plates were shaken on an orbital plate shaker for 2 min. Plates were incubated without shaking for 30 more min and read in a luminometer with an integration time of 0.5 seconds per well. Percent inhibition of cell growth was calculated relative to vehicle treated control wells. Concentration of compound that inhibits 50% of vehicle control cell growth (IC50) was interpolated using nonlinear regression (Levenberg-Marquardt) and the equation, y=Vmax*(1−(x/(K+x)))+Y2, where “K” was equal to the IC50.
In general terms: In ATP-based viability assays light output follows the ATP content of the culture.

Assay [2] has as its target T1, ErbB2 or EGFR.
T1 construct: enzymes purified from a baculovirus expression system; Reagent production was conducted essentially as described in Brignola, P. S., et al, (2002) J. Biol. Chem. 277(2): 1576-1585
Put plainly: ErbB family substrate phosphorylation enzyme assay (HTRF), Method A or Method B. Format: biochemical. The procedure, abridged:
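Baculovirus-expressed EGFR or ErbB2 (0.8 or 10 nM in enzyme mix) phosphorylates biotinylated Peptide C with 20 µM ATP and 0.8 µM peptide (substrate-mix levels), MnCl2, pH 7.5. Reaction ran 90 min at 20 °C with EDTA stop and HTRF anti-phosphotyrosine read. Method A: enzyme added last; Method B: 1 h enzyme–compound preincubation.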

Assay [3] has as its system BT474 and HN5 tumor cell lines. Put plainly: Celltiter Glo growth inhibition assay (cellular Method B). Format: cell-based. To be noted: Homo sapiens, BT-474, 72 h, 3 days, read-out: Activity (Method): growth inhibition IC50 class. As for the experimental part: as §1
The subject of assay [4] is BT474 and HN5 tumor cell lines. Put plainly: Methylene blue growth inhibition assay (cellular Method A). The class given is cell-based, Human. The settings on record: Homo sapiens, BT-474, 72 h, 3 days, read-out: Activity (Method): growth inhibition IC50 class. The procedure, abridged:
(§2)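 Growth inhibition measured by methylene blue staining of biomass (OD 620) after 3 days' compound exposure at 37° C, final DMSO 0.3%. Cell lines: BT474 (10,000/well), HN5 (3,000/well) and Colo205, all in DMEM with 10% FBS; IC50 fitted by nonlinear regression against vehicle-treated wells.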

Assay [5] concerns Colo205 tumor cell lines. As to the kind of experiment: Methylene blue growth inhibition assay (cellular Method A), Colo205. The class given is cell-based, Human. To be noted: Homo sapiens, COLO 205, 72 h, 3 days, read-out: Activity (Method): growth inhibition IC50 class. The procedure, abridged:
as §2

[6] abbreviates: Method B: enzyme mix pre-incubated with compound 1 hour at 20° C., started with substrate mix.
The mark [7] stands for this setting: Method A: substrate mix added first, reaction started with enzyme mix.

Some results are limits rather than exact numbers.

For the compound `O=C(Nc1cccc(-c2nn3cc(C(F)(F)F)ccc3c2-c2nc(Nc3cccc(F)c3)ncc2F)c1)c1c(F)cccc1F` [Example 193, 2,6-Difluoro-N-{3-[3-{5-fluoro-2-[(3-fluorophenyl)amino]-4-pyrimidinyl}-6-(trifluoromethyl)pyrazolo[1,5-a]pyridin-2-yl]phenyl}benzamide], the IC50 in assay [1] and in assay [3] was over 1000 nM each time. Also, the “Activity (Method): pIC50 class against ErbB2 or EGFR” value (from here on “Activity (Method): pIC50 class”) in assay [2] (setting [6]) is listed as “+ (B) (no pIC50 measurement greater than 6 against either ErbB2 or EGFR)”.

As for `CN(C)CCNCc1cccc(Nc2nccc(-c3c(-c4cccc(NC(=O)c5c(F)cccc5F)c4)nn4ccccc34)n2)c1` [Example 185, N-{3-[3-(2-{[3-({[2-(Dimethylamino)ethyl]amino}methyl)phenyl]-amino}-4-pyrimidinyl)pyrazolo[1,5-a]pyridin-2-yl]phenyl}-2,6-difluorobenzamide], the IC50 – broadly, the point on the concentration scale where inhibition reaches its midpoint – is over 1000 nM in assay [1] and under 100 nM in assay [3]. In addition, the “Activity (Method): pIC50 class” value in assay [2] (setting [6]) is recorded as “+++ (B) (at least one pIC50 measurement of greater than 7 against either ErbB2 or EGFR)”.

As to `CN(C)C1Cc2ccc(Nc3nccc(-c4c(-c5ccc(F)c(NC(=O)c6c(F)cccc6F)c5)nn5ccccc45)n3)cc2C1.O=C(O)C(F)(F)F` (stereo not drawn) [Example 181, N-{5-[3-(2-{[2-(Dimethylamino)-2,3-dihydro-1H-inden-5-yl]amino}-4-pyrimidinyl)pyrazolo[1,5-a]pyridin-2-yl]-2-fluorophenyl}-2,6-difluorobenzamide], the IC50 in assay [1] is 100 to 1000 nM; in assay [3] it was under 100 nM. Further, the “Activity (Method): pIC50 class” value in assay [2] (setting [6]) is listed as “+++ (B) (at least one pIC50 measurement of greater than 7 against either ErbB2 or EGFR)”.

In the case of `O=C(Nc1cccc(-c2nn3cc(F)ccc3c2-c2ccnc(Nc3cccc(CN4CCCC4)c3)n2)c1)c1c(F)cccc1F` [Example 172, 2,6-Difluoro-N-{3-[6-fluoro-3-(2-{[3-(1-pyrrolidinylmethyl)phenyl]amino}-4-pyrimidinyl)pyrazolo[1,5-a]pyridin-2-yl]phenyl}benzamide], the IC50 is over 1000 nM in assay [1] and under 100 nM in assay [3]. For the same compound, the “Activity (Method): pIC50 class” value in assay [2] (setting [6]) is given as “+++ (B) (at least one pIC50 measurement of greater than 7 against either ErbB2 or EGFR)”.

Consider `Cc1ncoc1-c1cccc(Nc2nccc(-c3c(-c4cccc(NC(=O)c5c(F)cccc5F)c4)nn4ccccc34)n2)c1` [Example 178, 2,6-Difluoro-N-{3-[3-(2-{[3-(4-methyl-1,3-oxazol-5-yl)phenyl]amino}-4-pyrimidinyl)pyrazolo[1,5-a]pyridin-2-yl]phenyl}benzamide], for which the IC50 in assay [1] is 100 to 1000 nM; in assay [4], under 100 nM. For the same compound, the “Activity (Method): pIC50 class” value in assay [2] (setting [6]) was “+++ (B) (at least one pIC50 measurement of greater than 7 against either ErbB2 or EGFR)”.

Turning to `CN(C)CCOc1cccc(Nc2nccc(-c3c(-c4ccc(F)c(NC(=O)c5c(F)cccc5F)c4)nn4ccccc34)n2)c1` [Example 182, N-[5-(3-{2-[(3-{[2-(Dimethylamino)ethyl]oxy}phenyl)amino]-4-pyrimidinyl}pyrazolo[1,5-a]pyridin-2-yl)-2-fluorophenyl]-2,6-difluorobenzamide], the IC50 in assay [1] is 100 to 1000 nM; in assay [3], under 100 nM. For the same compound, the “Activity (Method): pIC50 class” value in assay [2] (setting [6]) is “+++ (B) (at least one pIC50 measurement of greater than 7 against either ErbB2 or EGFR)”.

With `O=C(Nc1cccc(-c2nn3ccccc3c2-c2ccnc(Nc3cccc(F)c3)n2)c1)c1c(F)cccc1F` [Example 115, 2,6-Difluoro-N-[3-(3-{2-[(3-fluorophenyl)amino]-4-pyrimidinyl}pyrazolo[1,5-a]pyridin-2-yl)phenyl]benzamide], the IC50 is over 1000 nM in assay [1] and under 100 nM in assay [3]. For the same compound, the “Activity (Method): pIC50 class” value in assay [2] (setting [6]) is given as “++ (B) (at least one pIC50 measurement greater than 6 against either ErbB2 or EGFR but no measurement greater than pIC50 of 7)”.

As for `CN1CCN(CCCOc2ccc(Nc3nccc(-c4c(-c5cccc(NC(=O)c6c(F)cccc6F)c5)nn5ccccc45)n3)cc2Cl)CC1` [Example 164, N-[3-(3-{2-[(3-chloro-4-{[3-(4-methyl-1-piperazinyl)propyl]oxy}-phenyl)amino]-4-pyrimidinyl}pyrazolo[1,5-a]pyridin-2-yl)phenyl]-2,6-difluorobenzamide], the IC50 was over 1000 nM in assay [1] and under 100 nM in assay [3]. The “Activity (Method): pIC50 class” value in assay [2] (setting [6]) is listed as “+++ (B) (at least one pIC50 measurement of greater than 7 against either ErbB2 or EGFR)”.

For `CN1CCc2ccc(Nc3nccc(-c4c(-c5cccc(NC(=O)c6c(F)cccc6F)c5)nn5cc(F)ccc45)n3)cc2C1` [Example 173, 2,6-Difluoro-N-[3-(6-fluoro-3-{2-[(2-methyl-1,2,3,4-tetrahydro-7-isoquinolinyl)amino]-4-pyrimidinyl}pyrazolo[1,5-a]pyridin-2-yl)phenyl]benzamide], the IC50 was over 1000 nM in assay [1] and under 100 nM in assay [3]. In assay [2] (setting [6]), the “Activity (Method): pIC50 class” value was “+++ (B) (at least one pIC50 measurement of greater than 7 against either ErbB2 or EGFR)”.

As to `CN(C)CCOc1cccc(Nc2nccc(-c3c(-c4cccc(NC(=O)c5c(F)cccc5F)c4)nn4cc(C(F)(F)F)ccc34)n2)c1` [Example 194, N-{3-[3-{2-[(3-{[2-(Dimethylamino)ethyl]oxy}phenyl)amino]-4-pyrimidinyl}-6-(trifluoromethyl)pyrazolo[1,5-a]pyridin-2-yl]phenyl}-2,6-difluorobenzamide], the IC50 was over 1000 nM in assay [1] and 100 to 1000 nM in assay [3]. In addition, the “Activity (Method): pIC50 class” value in assay [2] (setting [6]) is reported as “+++ (B) (at least one pIC50 measurement of greater than 7 against either ErbB2 or EGFR)”.

On to `Cc1ccc(F)c(C(=O)Nc2cccc(-c3nn4ccccc4c3-c3ccnc(Nc4cccc(OCCN(C)C)c4)n3)c2)c1F` [Example 190, N-[3-(3-{2-[(3-{[2-(Dimethylamino)ethyl]oxy}phenyl)amino]-4-pyrimidinyl}pyrazolo[1,5-a]pyridin-2-yl)phenyl]-2,6-difluoro-3-methylbenzamide], for which the IC50 in assay [5] was 100 to 1000 nM; in assay [4] it was under 100 nM. Besides, the “Activity (Method): pIC50 class” value in assay [2] (setting [6]) is listed as “+++ (B) (at least one pIC50 measurement of greater than 7 against either ErbB2 or EGFR)”.

Consider `O=C(Nc1cccc(-c2nn3ccccc3c2-c2ccnc(Nc3ccc4c(c3)OCCO4)n2)c1)Nc1ccccc1Cl` [Example 2, N-(2-Chlorophenyl)-N-(3-{3-[2-(2,3-dihydro-1,4-benzodioxin-6-ylamino)-4-pyrimidinyl]pyrazolo[1,5-a]pyridin-2-yl}phenyl)urea], for which the IC50 in assay [5] and in assay [4] was over 1000 nM in each case. Also, in assay [2] (setting [7]), the “Activity (Method): pIC50 class” value is recorded as “++ (A) (at least one pIC50 measurement greater than 6 against either ErbB2 or EGFR but no measurement greater than pIC50 of 7)”.

Consider `COc1ccc(Nc2nccc(-c3c(-c4cccc(NC(=O)c5c(F)cccc5F)c4)nn4ccccc34)n2)cc1Cl` [Example 87, N-{3-[3-(2-{[3-Chloro-4-(methyloxy)phenyl]amino}-4-pyrimidinyl)pyrazolo[1,5-a]pyridin-2-yl]phenyl}-2,6-difluorobenzamide], for which the IC50 in assay [5] is 100 to 1000 nM; in assay [4], under 100 nM. Further, the “Activity (Method): pIC50 class” value in assay [2] (setting [7]) is “+++ (A) (at least one pIC50 measurement of greater than 7 against either ErbB2 or EGFR)”.

Turning to `CN1CCc2ccc(Nc3nccc(-c4c(-c5cccc(NC(=O)c6c(F)cccc6F)c5)nn5ccccc45)n3)cc2C1` [Example 179, 2,6-Difluoro-N-[3-(3-{2-[(2-methyl-1,2,3,4-tetrahydro-7-isoquinolinyl)amino]-4-pyrimidinyl}pyrazolo[1,5-a]pyridin-2-yl)phenyl]benzamide], the results for the IC50 in assay [5] and in assay [4] were 100 to 1000 nM and under 100 nM, respectively. For the same compound, the “Activity (Method): pIC50 class” value in assay [2] (setting [6]) is “+++ (B) (at least one pIC50 measurement of greater than 7 against either ErbB2 or EGFR)”.
